According to patent US8598183B2, “Solid state forms of a potent HCV inhibitor” (Boehringer Ingelheim International GmbH, priority 2010, dated 2013):
Marks after values point to notes of the source that are not given here.

Experiments:
[1] = Powder dissolution testing in pH 6.8 buffer, USP Type II Paddle apparatus; format: physicochemical; settings: 60 minutes, listed as crystalline Compound (1) sodium salt
[2] = Powder dissolution of triturated mixtures in capsules in 500 mL pH 6.8 buffer; format: physicochemical; settings: capsule; for % Release, average: 200 mg drug + Meglumine 100 mg, n = 2
From the text: One class of solubilizer excipients, basifiers, act by increasing the microenvironment pH and thereby increasing the local solubility of the drug (for a drug containing an acid moiety). Another class of solubilizer excipients, surfactants, also act by increasing the local solubility of the drug. […] For example, an enhancement in dissolution was obtained when surfactants, for example, sodium lauryl sulfate or Vitamin E TPGS, were used in combination with basifiers, for example, L-arginine, meglumine or L-lysine. […] For example, only 1% drug release was obtained when Compound (1) sodium salt crystalline was present. The % drug release was 54% at 60 minutes in the presence of 100 mg Arginine alone and 59% in the presence of Sodium lauryl sulfate alone (Table 2). However, in presence of 100 mg of Arginine along with 100 mg of Sodium lauryl sulfate, the % drug release increased to 93% at 60 minutes (Table 3) indicating enhancement in dissolution when both surfactant and basifier were used in combination.

**Q.** With `Cn1c(C2(NC(=O)c3ccc4c(C5CCCC5)c(-c5ncc(Br)cn5)n(C)c4c3)CCC2)nc2ccc(/C=C/C(=O)[O-])cc21.[Na+]` [Compound (1) sodium salt] as the molecule, how does the “% dissolved (kinetic dissolution)” value [1] read?
**A.** < 5%

**Q.** What about the “% Release, average (range)” value ([2]; 200 mg drug + Arginine 100 mg, 90 (infinity), n = 4) of the same molecule?
**A.** 54 (40-58) %

**Q.** What about the “% Release, average (range)” value ([2]; 200 mg drug + Arginine 100 mg, 15 min, n = 4) of the same molecule?
**A.** 43 (27-53)* %

**Q.** What about the “% Release, average (range)” value ([2]; 200 mg drug + Arginine 100 mg, 30 min, n = 4) of the same molecule?
**A.** 54 (39-62) %

**Q.** And the “% Release, average (range)” value ([2]; 200 mg drug + Arginine 100 mg, 60 min, n = 4, listed as Compound (1) Na Salt)?
**A.** 54 (38-60) %

**Q.** What about the “% Release, average (range)” value ([2]; 200 mg drug + Arginine 100 mg, 60 min, n = 4, listed as Compound (1) sodium salt crystalline) of the same molecule?
**A.** 54%

**Q.** What about the “% Release, Average of n = 2 (range)” value ([2]; 200 mg drug + Arginine + SDS (40 mg + 20 mg), 15 min) of the same molecule?
**A.** 74 (70-78) %

**Q.** And the “% Release, Average of n = 2 (range)” value ([2]; 200 mg drug + Arginine + SDS (40 mg + 20 mg), 30 min)?
**A.** 77 (74-80) %

**Q.** What about the “% Release, Average of n = 2 (range)” value ([2]; 200 mg drug + Arginine + SDS (40 mg + 20 mg), 60 min) of the same molecule?
**A.** 76 (74-78) %

**Q.** And the “% Release, Average of n = 2 (range)” value ([2]; 200 mg drug + Arginine + SDS (40 mg + 20 mg), 90 min)?
**A.** 72 (70-74) %

**Q.** And the “% Release, Average of n = 2 (range)” value ([2]; 200 mg drug + Arginine + SDS (100 mg + 100 mg), 15 min)?
**A.** 92 (91-93) %

**Q.** And the “% Release, Average of n = 2 (range)” value ([2]; 200 mg drug + Arginine + SDS (100 mg + 100 mg), 30 min)?
**A.** 93 (93-94) %

**Q.** And the “% Release, Average of n = 2 (range)” value ([2]; 200 mg drug + Arginine + SDS (100 mg + 100 mg), 60 min, listed as Compound (1) Na Salt)?
**A.** 93 (93-93) %

**Q.** What about the “% Release, Average of n = 2 (range)” value ([2]; 200 mg drug + Arginine + SDS (100 mg + 100 mg), 60 min, listed as Compound (1) sodium salt crystalline) of the same molecule?
**A.** 93%

**Q.** And the “% Release, Average of n = 2 (range)” value ([2]; 200 mg drug + Arginine + SDS (100 mg + 100 mg), 90 min)?
**A.** 91 (89-92) %

**Q.** And the “% Release, Average of n = 2 (range)” value ([2]; 200 mg drug + Arginine + VitE TPGS (40 mg + 20 mg), 15 min)?
**A.** 62 (61-63) %

**Q.** What about the “% Release, Average of n = 2 (range)” value ([2]; 200 mg drug + Arginine + VitE TPGS (40 mg + 20 mg), 30 min) of the same molecule?
**A.** 64 (62-67) %

**Q.** What about the “% Release, Average of n = 2 (range)” value ([2]; 200 mg drug + Arginine + VitE TPGS (40 mg + 20 mg), 60 min) of the same molecule?
**A.** 65 (63-68) %

**Q.** What about the “% Release, Average of n = 2 (range)” value ([2]; 200 mg drug + Arginine + VitE TPGS (40 mg + 20 mg), 90 min) of the same molecule?
**A.** 63 (60-66) %

**Q.** And the “% Release, Average of n = 2 (range)” value ([2]; 200 mg drug + Arginine + VitE TPGS (100 mg + 100 mg), 15 min)?
**A.** 76 (74-78) %

**Q.** What about the “% Release, Average of n = 2 (range)” value ([2]; 200 mg drug + Arginine + VitE TPGS (100 mg + 100 mg), 30 min) of the same molecule?
**A.** 77 (76-78) %

**Q.** What about the “% Release, Average of n = 2 (range)” value ([2]; 200 mg drug + Arginine + VitE TPGS (100 mg + 100 mg), 60 min) of the same molecule?
**A.** 78 (78-78) %

**Q.** What about the “% Release, Average of n = 2 (range)” value ([2]; 200 mg drug + Arginine + VitE TPGS (100 mg + 100 mg), 90 min) of the same molecule?
**A.** 76 (75-76) %

**Q.** What about the “% Release, average (range)” value ([2]; 200 mg drug + Lysine 100 mg, 90 (infinity), n = 4) of the same molecule?
**A.** 44 (33-46) %

**Q.** And the “% Release, average (range)” value ([2]; 200 mg drug + Lysine 100 mg, 15 min, n = 4)?
**A.** 18 (9-27) %

**Q.** What about the “% Release, average (range)” value ([2]; 200 mg drug + Lysine 100 mg, 60 min, n = 4) of the same molecule?
**A.** 47 (33-54) %

**Q.** What about the “% Release, Average of n = 2 (range)” value ([2]; 200 mg drug + Lysine + SDS (40 mg + 20 mg), 15 min) of the same molecule?
**A.** 75 (74-77) %

**Q.** What about the “% Release, Average of n = 2 (range)” value ([2]; 200 mg drug + Lysine + SDS (40 mg + 20 mg), 30 min) of the same molecule?
**A.** 77 (76-78) %

**Q.** What about the “% Release, Average of n = 2 (range)” value ([2]; 200 mg drug + Lysine + SDS (40 mg + 20 mg), 60 min) of the same molecule?
**A.** 75 (74-75) %

**Q.** What about the “% Release, Average of n = 2 (range)” value ([2]; 200 mg drug + Lysine + SDS (40 mg + 20 mg), 90 min) of the same molecule?
**A.** 72 (70-74) %

**Q.** What about the “% Release, Average of n = 2 (range)” value ([2]; 200 mg drug + Lysine + SDS (100 mg + 100 mg), 15 min) of the same molecule?
**A.** 40 (37-42) %

**Q.** What about the “% Release, Average of n = 2 (range)” value ([2]; 200 mg drug + Lysine + SDS (100 mg + 100 mg), 30 min) of the same molecule?
**A.** 74 (67-82) %

**Q.** What about the “% Release, Average of n = 2 (range)” value ([2]; 200 mg drug + Lysine + SDS (100 mg + 100 mg), 60 min) of the same molecule?
**A.** 85 (85-86) %

**Q.** And the “% Release, Average of n = 2 (range)” value ([2]; 200 mg drug + Lysine + SDS (100 mg + 100 mg), 90 min)?
**A.** 85 (84-85) %

**Q.** What about the “% Release, Average of n = 2 (range)” value ([2]; 200 mg drug + Lysine + VitE TPGS (40 mg + 20 mg), 15 min) of the same molecule?
**A.** 37 (33-41) %

**Q.** And the “% Release, Average of n = 2 (range)” value ([2]; 200 mg drug + Lysine + VitE TPGS (40 mg + 20 mg), 30 min)?
**A.** 69 (69-70) %

**Q.** What about the “% Release, Average of n = 2 (range)” value ([2]; 200 mg drug + Lysine + VitE TPGS (40 mg + 20 mg), 60 min) of the same molecule?
**A.** 71 (70-72) %

**Q.** What about the “% Release, Average of n = 2 (range)” value ([2]; 200 mg drug + Lysine + VitE TPGS (100 mg + 100 mg), 15 min) of the same molecule?
**A.** 42 (29-55) %

**Q.** What about the “% Release, Average of n = 2 (range)” value ([2]; 200 mg drug + Lysine + VitE TPGS (100 mg + 100 mg), 30 min) of the same molecule?
**A.** 79 (77-81) %

**Q.** What about the “% Release, Average of n = 2 (range)” value ([2]; 200 mg drug + Lysine + VitE TPGS (100 mg + 100 mg), 60 min) of the same molecule?
**A.** 83 (82-83) %

**Q.** What about the “% Release, Average of n = 2 (range)” value ([2]; 200 mg drug + Lysine + VitE TPGS (100 mg + 100 mg), 90 min) of the same molecule?
**A.** 81 (81-82) %

**Q.** What about the “% Release, average” value ([2]; 90 (infinity)) of the same molecule?
**A.** 49%

**Q.** And the “% Release, average” value ([2]; 15 min)?
**A.** 47%

**Q.** And the “% Release, average” value ([2]; 30 min)?
**A.** 48%

**Q.** And the “% Release, average” value ([2]; 60 min)?
**A.** 48%

**Q.** What about the “% Release, Average of n = 2 (range)” value ([2]; 200 mg drug + Meglumine + SDS (40 mg + 20 mg), 15 min) of the same molecule?
**A.** 66 (61-71) %

**Q.** What about the “% Release, Average of n = 2 (range)” value ([2]; 200 mg drug + Meglumine + SDS (40 mg + 20 mg), 30 min) of the same molecule?
**A.** 73 (71-75) %

**Q.** And the “% Release, Average of n = 2 (range)” value ([2]; 200 mg drug + Meglumine + SDS (40 mg + 20 mg), 60 min)?
**A.** 70 (69-71) %

**Q.** And the “% Release, Average of n = 2 (range)” value ([2]; 200 mg drug + Meglumine + SDS (40 mg + 20 mg), 90 min)?
**A.** 68 (67-69) %
